Data: patent US20250017935A1, “7,8-DIHYDRO-5H-1,6-NAPHTHYRIDINE DERIVATIVES AS POSITIVE ALLOSTERIC MODULATORS OF THE MUSCARINIC ACETYLCHOLINE RECEPTOR M4 FOR TREATING NEUROLOGICAL AND PSYCHIATRIC DISORDERS” (Vanderbilt University, priority 2021, published 2025)

Molecular target: T1, Human M4 (Homo sapiens, UniProt P08173)
T1 construct: expressed in transfected cells; host or cells: CHO-K1 (ATCC), stably expressing hM4 and Gqi5
T1 sequence (P08173 1-479): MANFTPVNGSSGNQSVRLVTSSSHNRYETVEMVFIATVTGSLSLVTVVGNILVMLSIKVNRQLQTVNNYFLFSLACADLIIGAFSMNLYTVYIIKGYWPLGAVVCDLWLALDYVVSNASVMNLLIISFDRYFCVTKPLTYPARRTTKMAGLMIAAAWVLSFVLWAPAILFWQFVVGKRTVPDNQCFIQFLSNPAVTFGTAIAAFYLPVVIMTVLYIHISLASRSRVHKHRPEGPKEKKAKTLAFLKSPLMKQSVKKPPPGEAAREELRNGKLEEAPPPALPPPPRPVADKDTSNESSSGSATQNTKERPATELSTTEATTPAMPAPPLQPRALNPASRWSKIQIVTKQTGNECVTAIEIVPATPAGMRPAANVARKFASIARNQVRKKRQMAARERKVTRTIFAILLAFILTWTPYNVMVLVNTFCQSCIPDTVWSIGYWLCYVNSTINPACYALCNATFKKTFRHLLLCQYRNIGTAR
Test: mAChR M4 cell-based functional assay (calcium flux, potentiation of EC20 acetylcholine response) in hM4-Gqi5 CHO-K1 cells
Conditions: for Emax at 30 µM: % ACh maximum at 30 μM, human M4 CHO-K1 cells; for EC50: CHO-K1 cells transfected with human M4 and Gqi5, positive allosteric modulator activity, EC20 acetylcholine
Experimental: Human M4 cDNA, along with the chimeric G protein Gqi5, were transfected into Chinese hamster ovary (CHO-K1) cells purchased from the American Type Culture Collection using commercially available Lipofectamine 2000 transfection reagent (Dalby, B. et al., Methods (2004) 33(2), 95-103). hM4-Gqi5 cells were grown in Ham's F-12 medium containing 10% heat-inactivated fetal bovine serum (FBS), 20 mM HEPES, 50 μg/mL G418 sulfate (CAS #108321-42-2), and 500 μg/mL Hygromycin B. rM4-Gqi5 cells were grown in DMEM containing 10% heat-inactivated FBS, 20 mM HEPES, 400 μg/mL G418 sulfate, and 500 μg/mL Hygromycin B.
For high throughput measurement of agonist-evoked increases in intracellular calcium, CHO-K1 cells stably expressing muscarinic receptors were plated in growth medium lacking G418 sulfate and hygromycin at 15,000 cells/20 μL/well in Greiner 384-well black-walled, tissue culture (TC)-treated, clear-bottom plates (VWR). Cells were incubated overnight at 37° C. and 5% CO2. The next day, cells were washed using an ELX 405 (BioTek) with assay buffer; the final volume was then aspirated to 20 μL. Next, 20 μL of a 2.3 μM stock of Fluo-4/acetoxymethyl ester (Invitrogen, Carlsbad, CA), prepared as a 2.3 mM stock in DMSO and mixed in a 1:1 ratio with 10% (w/v) Pluronic F-127 and diluted in assay buffer, was added to the wells and the cell plates were incubated for 50 minutes at 37° C. and 5% CO2. Dye was removed by washing with the ELX 405 and the final volume was aspirated to 20 μL. Compound master plates were formatted in an 11 point concentration-response curve (CRC) format (1:3 dilutions) in 100% DMSO with a starting concentration of 10 mM using a BRAVO liquid handler (Agilent). Test compound CRCs were then transferred to daughter plates (240 nL) using the Echo acoustic plate reformatter (Labcyte, Sunnyvale, CA) and then diluted into assay buffer (40 μL) to a 2× stock using a Thermo Fisher Combi (Thermo Fisher Scientific, Waltham, MA).
Calcium flux was measured using the Functional Drug Screening System (FDSS) 6000 or 7000 (Hamamatsu Corporation, Tokyo, Japan) as an increase in the fluorescent static ratio. Compounds were applied to cells (20 μL, 2×) using the automated system of the FDSS at 2-4 seconds into the protocol and the data were collected at 1 Hz. […] Agonist activity was analyzed as a concentration-dependent increase in calcium mobilization upon compound addition. Positive allosteric modulator activity was analyzed as a concentration-dependent increase in the EC20 acetylcholine response. With the acetylcholine EC20 set as baseline, the test compound EC50 is determined as the concentration that produces an increase above baseline of 50% of the maximum increase in acetylcholine response elicted by the test compound. Antagonist activity was analyzed as a concentration-dependent decrease in the EC80 acetylcholine response. Concentration-response curves were generated using a four-parameter logistical equation in XLFit curve fitting software (IDBS, Bridgewater, NJ) for Excel (Microsoft, Redmond, WA) or Prism (GraphPad Software, Inc., San Diego, CA).
Compounds were synthesized as described above. Activity (EC50 and Emax) was determined in the mAChR M4 cell-based functional assay as described above and the data are shown in Table 5. The compound numbers correspond to the compound numbers used in Examples 1-13 and Tables 1, 2, and 3.

Emax at 30 µM	EC50	Compound
94%	0.08 µM	Cc1coc2ncnc(N3CCc4ncc(Nc5cccnc5F)cc4C3)c12 [Compound 39, N-(2-fluoro-3-pyridyl)-6-(5-methylfuro[2,3-d]pyrimidin-4-yl)-7,8-dihydro-5H-1,6-naphthyridin-3-amine]
51%	0.92 µM	Fc1ncccc1Nc1cnc2c(c1)CN(c1nc(Cl)nc3c1COC3)CC2 [Compound 68, 6-(2-chloro-5,7-dihydrofuro[3,4-d]pyrimidin-4-yl)-N-(2-fluoropyridin-3-yl)-5,6,7,8-tetrahydro-1,6-naphthyridin-3-amine]
51%	1.22 µM	Cn1nccc1Nc1cnc2c(c1)CN(c1nc(Cl)nc3c1COC3)CC2 [Compound 67, 6-(2-chloro-5,7-dihydrofuro[3,4-d]pyrimidin-4-yl)-N-(1-methyl-1H-pyrazol-5-yl)-5,6,7,8-tetrahydro-1,6-naphthyridin-3-amine]
100%	0.24 µM	Cc1noc2ncnc(N3CCc4ncc(N5CCOc6ncccc65)cc4C3)c12 [Compound 50, 1-[6-(3-methylisoxazolo[5,4-d]pyrimidin-4-yl)-7,8-dihydro-5H-1,6-naphthyridin-3-yl]-2,3-dihydropyrido[2,3-b][1,4]oxazine]
85%	0.61 µM	Cc1sc2ncnc(N3CCc4ncc(C(F)(F)F)cc4C3)c2c1C [Compound 1, 5,6-dimethyl-4-[3-(trifluoromethyl)-7,8-dihydro-5H-1,6-naphthyridin-6-yl]thieno[2,3-d]pyrimidine]
99%	0.01 µM	Cc1coc2ncnc(N3CCc4ncc(N5CCCn6nccc65)cc4C3)c12 [Compound 42, 4-[3-(6,7-dihydro-5H-pyrazolo[1,5-a]pyrimidin-4-yl)-7,8-dihydro-5H-1,6-naphthyridin-6-yl]-5-methyl-furo[2,3-d]pyrimidine]
68%	0.13 µM	Cc1ncc(-c2cnc3c(c2)CN(c2ncnc4occ(C)c24)CC3)s1 [Compound 49, 5-methyl-4-[3-(2-methylthiazol-5-yl)-7,8-dihydro-5H-1,6-naphthyridin-6-yl]furo[2,3-d]pyrimidine]
91%	0.47 µM	Cc1cc2c(N3CCc4ncc(-c5cnn(C6CC6)c5)cc4C3)ncnc2s1 [Compound 20, 4-[3-(1-cyclopropylpyrazol-4-yl)-7,8-dihydro-5H-1,6-naphthyridin-6-yl]-6-methyl-thieno[2,3-d]pyrimidine]

The remaining lines, values behind:

Compound	Emax at 30 µM	EC50
Cc1coc2ncnc(N3CCc4ncc(N5CCOc6ncccc65)cc4C3)c12 [Compound 47, 1-[6-(5-methylfuro[2,3-d]pyrimidin-4-yl)-7,8-dihydro-5H-1,6-naphthyridin-3-yl]-2,3-dihydropyrido[2,3-b][1,4]oxazine]	125%	0.05 µM
Cc1ccc(F)c(Oc2cnc3c(c2)CN(c2ncnc4ccsc24)CC3)c1 [Compound 27, 4-[3-(2-fluoro-5-methyl-phenoxy)-7,8-dihydro-5H-1,6-naphthyridin-6-yl]thieno[3,2-d]pyrimidine]	36%	2.38 µM
Clc1nc2c(c(N3CCc4ncc(C5CC5)cc4C3)n1)COC2 [Compound 66, 2-chloro-4-(3-cyclopropyl-7,8-dihydro-1,6-naphthyridin-6(5H)-yl)-5,7-dihydrofuro[3,4-d]pyrimidine]	54%	0.58 µM
Cc1cc2c(N3CCc4ncc(Oc5ccccc5F)cc4C3)ncnc2s1 [Compound 3, 4-[3-(2-fluorophenoxy)-7,8-dihydro-5H-1,6-naphthyridin-6-yl]-6-methyl-thieno[2,3-d]pyrimidine]	80%	0.63 µM
Cc1ccc(-c2cnc3c(c2)CN(c2ncnc4scc(C)c24)CC3)cn1 [Compound 17, 5-methyl-4-[3-(6-methyl-3-pyridyl)-7,8-dihydro-5H-1,6-naphthyridin-6-yl]thieno[2,3-d]pyrimidine]	79%	0.18 µM
Cc1csc2c(N3CCc4ncc(N5CCCn6nccc65)cc4C3)ncnc12 [Compound 22, 4-[3-(6,7-dihydro-5H-pyrazolo[1,5-a]pyrimidin-4-yl)-7,8-dihydro-5H-1,6-naphthyridin-6-yl]-7-methyl-thieno[3,2-d]pyrimidine]	85%	0.28 µM
Cc1ncc(-c2cnc3c(c2)CN(c2ncnc4c(C)csc24)CC3)s1 [Compound 5, 7-methyl-4-[3-(2-methylthiazol-5-yl)-7,8-dihydro-5H-1,6-naphthyridin-6-yl]thieno[3,2-d]pyrimidine]	35%	0.31 µM
Cc1csc2c(N3CCc4ncc(C(F)(F)F)cc4C3)ncnc12 [Compound 11, 7-methyl-4-[3-(trifluoromethyl)-7,8-dihydro-5H-1,6-naphthyridin-6-yl]thieno[3,2-d]pyrimidine]	63%	0.5 µM
Cc1ncc(-c2cnc3c(c2)CN(c2ncnc4sccc24)CC3)s1 [Compound 6, 4-[3-(2-methylthiazol-5-yl)-7,8-dihydro-5H-1,6-naphthyridin-6-yl]thieno[2,3-d]pyrimidine]	45%	0.1 µM
Cc1nc2c(c(N3CCc4ncc(C(F)(F)F)cc4C3)n1)CCC2 [Compound 59, 6-(2-methyl-6,7-dihydro-5H-cyclopenta[d]pyrimidin-4-yl)-3-(trifluoromethyl)-7,8-dihydro-5H-1,6-naphthyridine]	87%	1.03 µM
Cc1csc2ncnc(N3CCc4ncc(-c5cnn(C6CC6)c5)cc4C3)c12 [Compound 26, 4-[3-(1-cyclopropylpyrazol-4-yl)-7,8-dihydro-5H-1,6-naphthyridin-6-yl]-5-methyl-thieno[2,3-d]pyrimidine]	75%	0.28 µM
Cc1ncc(-c2cnc3c(c2)CN(c2ncnc4scc(C)c24)CC3)s1 [Compound 18, 5-methyl-4-[3-(2-methylthiazol-5-yl)-7,8-dihydro-5H-1,6-naphthyridin-6-yl]thieno[2,3-d]pyrimidine]	72%	0.47 µM
Cc1nn(C)cc1-c1cnc2c(c1)CN(c1ncnc3scc(C)c13)CC2 [Compound 28, 4-[3-(1,3-dimethylpyrazol-4-yl)-7,8-dihydro-5H-1,6-naphthyridin-6-yl]-5-methyl-thieno[2,3-d]pyrimidine]	78%	0.09 µM
Cc1ccc(-c2cnc3c(c2)CN(c2ncnc4c(C)csc24)CC3)cn1 [Compound 15, 7-methyl-4-[3-(6-methyl-3-pyridyl)-7,8-dihydro-5H-1,6-naphthyridin-6-yl]thieno[3,2-d]pyrimidine]	45%	0.55 µM
